# Reference: patent US11026946B2, “Pharmacologically active alicyclic-substituted pyrazolo[1,5-a]pyrimidine derivatives” (RICHTER GEDEON NYRT., priority 2017, dated 2021)
# Target: T1, GABAB receptor (Rattus norvegicus, UniProt O88871+Q9Z0U4)
# T1 construct: from tissue; host or cells: rat brain cortex membranes
# Assay: In vitro [35S]GTPγS binding assay in rat cortical membranes
# Format: biochemical
# Conditions: PAM EC50, [35S]GTPγS binding, read-out: In vitro PAM potency
# Description: In Vitro [^35S]GTPγS Binding Assay in Rat Cortical Membranes
# Cortices of freshly harvested rat brains were dissected on an ice-cold surface and homogenized by a glass Dounce homogeniser immediately in ice-cold buffer containing 50 mM Tris, 5 mM MgCl2 and 1 mM EDTA (pH=7.6). Tissue homogenates were centrifuged at 40000 g for 15 min at 4° C. Membrane pellets were resuspended in the same buffer and membranes were incubated for 10 min at 30° C. in a shaking water bath to eliminate endogenous GABA. Homogenates were centrifuged again under the same conditions. The final pellets were resuspended in ice-cold buffer (pH=7.6) containing 50 mM Tris, 100 mM NaCl, 7 mM MgCl2, 1 mM EDTA and 1 mM dithiotreithol (DTT) to yield a concentration of 20 mg tissue weight/ml and frozen at −70° C. until use. The assay was done in a buffer containing 50 mM Tris (pH=7.4), 100 mM NaCl, 7 mM MgCl2, 1 mM EDTA and 1 mM DTT. Each assay tube contained 150 μL GDP (in a final concentration of 50 μM), 100 μL ligand and 125 μL of the membrane suspension (250 μg tissue/tube). The assay tubes were preincubated for 10 min at 30° C. to assure equilibrium. Nonspecific binding was determined in the presence of 10 μM GTPγS: basal binding was determined in the presence of buffer only. After addition of 50 pM [^35S]GTPγS in a volume of 25 μL to the tubes, membranes were incubated for an additional 60 min at 30° C. The assay was terminated by rapid filtration through Packard UniFilter GF/B using a Packard harvester and washed four times with 1 ml ice-cold buffer. After drying the filters at 40° C. for 1 h, 40 μL Microscint (Packard) was added to the filters and radioactivity of the filters was determined by a TopCount NXT (PerkinElmer, Waltham, Mass.: Alper and Nelson, Eur. J. Pharmacol. 1998, 343, 303-312; Rinken et al, Biochem. Pharmacol. 1999, 57, 155-162). Data thus gathered were used to determine PAM EC50 values for each compound as primary in vitro activity end point.
# T1 sequence (O88871 41-940): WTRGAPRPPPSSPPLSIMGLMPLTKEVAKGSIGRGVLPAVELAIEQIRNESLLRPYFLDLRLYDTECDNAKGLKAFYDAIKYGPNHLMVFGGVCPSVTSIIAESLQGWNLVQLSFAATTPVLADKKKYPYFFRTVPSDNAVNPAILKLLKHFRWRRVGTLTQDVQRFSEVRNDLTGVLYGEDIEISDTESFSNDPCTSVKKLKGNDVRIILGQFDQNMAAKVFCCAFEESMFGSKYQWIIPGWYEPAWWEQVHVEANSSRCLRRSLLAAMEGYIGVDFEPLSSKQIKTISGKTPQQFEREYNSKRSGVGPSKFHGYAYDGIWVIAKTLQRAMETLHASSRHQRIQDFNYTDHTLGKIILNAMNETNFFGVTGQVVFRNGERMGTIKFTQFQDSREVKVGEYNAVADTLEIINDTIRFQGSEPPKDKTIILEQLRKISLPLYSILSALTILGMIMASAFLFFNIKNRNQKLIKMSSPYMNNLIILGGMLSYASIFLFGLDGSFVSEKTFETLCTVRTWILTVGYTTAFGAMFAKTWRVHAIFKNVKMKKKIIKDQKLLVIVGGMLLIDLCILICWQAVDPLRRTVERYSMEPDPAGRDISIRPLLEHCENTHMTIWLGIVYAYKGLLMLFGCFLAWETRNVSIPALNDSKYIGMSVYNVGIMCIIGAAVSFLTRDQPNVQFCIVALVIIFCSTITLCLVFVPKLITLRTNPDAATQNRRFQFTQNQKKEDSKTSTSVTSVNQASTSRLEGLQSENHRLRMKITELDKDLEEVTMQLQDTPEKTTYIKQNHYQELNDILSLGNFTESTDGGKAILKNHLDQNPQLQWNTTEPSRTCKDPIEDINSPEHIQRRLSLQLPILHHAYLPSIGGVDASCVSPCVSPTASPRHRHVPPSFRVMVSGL
# T1 sequence (Q9Z0U4 17-960 limits assumed): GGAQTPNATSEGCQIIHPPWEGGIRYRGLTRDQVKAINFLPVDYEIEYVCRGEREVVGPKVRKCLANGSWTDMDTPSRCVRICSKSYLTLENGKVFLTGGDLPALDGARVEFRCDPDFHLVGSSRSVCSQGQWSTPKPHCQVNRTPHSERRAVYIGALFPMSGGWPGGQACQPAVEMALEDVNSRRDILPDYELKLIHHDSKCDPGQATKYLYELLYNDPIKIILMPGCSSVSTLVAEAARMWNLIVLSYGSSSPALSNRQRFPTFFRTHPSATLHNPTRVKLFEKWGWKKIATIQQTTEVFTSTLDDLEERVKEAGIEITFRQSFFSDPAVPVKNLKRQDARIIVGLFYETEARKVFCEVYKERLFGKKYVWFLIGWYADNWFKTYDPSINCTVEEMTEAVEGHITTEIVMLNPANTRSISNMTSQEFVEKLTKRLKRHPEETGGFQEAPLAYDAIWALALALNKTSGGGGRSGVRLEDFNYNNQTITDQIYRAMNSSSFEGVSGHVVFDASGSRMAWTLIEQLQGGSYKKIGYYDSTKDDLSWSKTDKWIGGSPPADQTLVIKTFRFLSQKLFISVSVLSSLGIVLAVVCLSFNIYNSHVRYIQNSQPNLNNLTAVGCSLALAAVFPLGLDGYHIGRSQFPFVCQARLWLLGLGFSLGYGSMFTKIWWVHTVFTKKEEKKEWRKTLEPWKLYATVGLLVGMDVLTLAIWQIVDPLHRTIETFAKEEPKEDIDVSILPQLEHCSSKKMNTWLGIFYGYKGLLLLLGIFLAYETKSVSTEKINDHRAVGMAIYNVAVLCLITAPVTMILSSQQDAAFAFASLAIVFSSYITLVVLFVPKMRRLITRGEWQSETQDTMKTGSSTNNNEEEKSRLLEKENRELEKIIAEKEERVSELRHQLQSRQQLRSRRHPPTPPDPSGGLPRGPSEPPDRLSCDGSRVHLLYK
row,Structure (SMILES),EC50
1,"CCCC1(C(=O)O)CCCN(c2c(C(C)C)c(C)nc3cc([C@H]4CC[C@H](C(F)(F)F)CC4)nn23)C1 (single isomer, unassigned) [Example 4]",1 to 10 nM
2,"CCCC1(C(=O)O)CCCN(c2c(C(C)C)c(C)nc3cc([C@H]4CC[C@H](C(F)(F)F)CC4)nn23)C1 (single isomer, unassigned) [Example 5]",1 to 10 nM
3,"Cc1nc2cc([C@H]3CC[C@H](C(F)(F)F)CC3)nn2c(N2CCCC(CF)(C(=O)O)C2)c1C(C)C (single isomer, unassigned) [Example 6]",1 to 10 nM
4,"Cc1nc2cc([C@H]3CC[C@H](C(F)(F)F)CC3)nn2c(N2CCCC(CF)(C(=O)O)C2)c1C(C)C (single isomer, unassigned) [Example 7]",< 1 nM
5,"COc1c(C)nc2cc([C@H]3CC[C@H](C(F)(F)F)CC3)nn2c1N1CCC[C@](C)(C(=O)O)C1 (single isomer, unassigned) [Example 19]",10 to 100 nM
6,"COc1c(C)nc2cc([C@H]3CC[C@H](C(F)(F)F)CC3)nn2c1N1CCC[C@@](C)(C(=O)O)C1 (single isomer, unassigned) [Example 20]",100 to 1000 nM
7,"Cc1nc2cc([C@H]3CC[C@H](C(F)(F)F)CC3)nn2c(N2CCC[C@H](C(=O)O)C2)c1C(C)C [Example 1, (3S)-1-[5-Methyl-6-(propan-2-yl)-2-[trans-4-(trifluoromethyl)cyclohexyl]pyrazolo[1,5-a]pyrimidin-7-yl]piperidine-3-carboxylic Acid]",1 to 10 nM
8,Cc1nc2cc([C@H]3CC[C@H](C(F)(F)F)CC3)nn2c(N2CCC[C@@H](C(=O)O)C2)c1C(C)C [Example 10],1 to 10 nM
9,Cc1nc2cc([C@H]3CC[C@H](C(F)(F)F)CC3)nn2c(N2CCC[C@@](C(=O)O)(C(C)C)C2)c1C(C)C [Example 14],1 to 10 nM
10,CC[C@]1(C(=O)O)CCCN(c2c(OC)c(C)nc3cc([C@H]4CC[C@H](C(F)(F)F)CC4)nn23)C1 [Example 21],10 to 100 nM
11,CC[C@@]1(C(=O)O)CCCN(c2c(OC)c(C)nc3cc([C@H]4CC[C@H](C(F)(F)F)CC4)nn23)C1 [Example 22],100 to 1000 nM

# Further lines, results first:
row,EC50,Structure (SMILES)
1,1 to 10 nM,"COc1c(C)nc2c(F)c([C@H]3CC[C@H](C(F)(F)F)CC3)nn2c1N1CCC[C@](C)(C(=O)O)C1 (single isomer, unassigned) [Example 23]"
2,10 to 100 nM,"COc1c(C)nc2c(F)c([C@H]3CC[C@H](C(F)(F)F)CC3)nn2c1N1CCC[C@@](C)(C(=O)O)C1 (single isomer, unassigned) [Example 24]"
3,10 to 100 nM,"CC[C@]1(C(=O)O)CCCN(c2c(OC)c(C)nc3c(F)c([C@H]4CC[C@H](C(F)(F)F)CC4)nn23)C1 (single isomer, unassigned) [Example 25]"
4,10 to 100 nM,"CC[C@@]1(C(=O)O)CCCN(c2c(OC)c(C)nc3c(F)c([C@H]4CC[C@H](C(F)(F)F)CC4)nn23)C1 (single isomer, unassigned) [Example 26]"
5,1 to 10 nM,"Cc1nc2cc(C3CCC(F)(F)CC3)nn2c(N2CCC[C@@](C)(C(=O)O)C2)c1C(C)C (single isomer, unassigned) [Example 30]"
6,10 to 100 nM,"CC[C@@]1(C(=O)O)CCCN(c2c(C(C)C)c(C)nc3cc(C4CCC(F)(F)CC4)nn23)C1 (single isomer, unassigned) [Example 32]"
7,1 to 10 nM,CCc1c(C)nc2cc([C@H]3CC[C@H](C(F)(F)F)CC3)nn2c1N1CCC[C@@](C)(C(=O)O)C1 [Example 27]
8,10 to 100 nM,CCc1c(C)nc2cc([C@H]3CC[C@H](C(F)(F)F)CC3)nn2c1N1CCC[C@@](CC)(C(=O)O)C1 [Example 28]
9,10 to 100 nM,Cc1nc2cc(C3CCC(F)(F)CC3)nn2c(N2CCC[C@](C)(C(=O)O)C2)c1C(C)C [Example 29]
10,10 to 100 nM,CC[C@]1(C(=O)O)CCCN(c2c(C(C)C)c(C)nc3cc(C4CCC(F)(F)CC4)nn23)C1 [Example 31]
11,1 to 10 nM,C[C@@]1(C(=O)O)CCCN(c2c3c(nc4cc([C@H]5CC[C@H](C(F)(F)F)CC5)nn24)CCCC3)C1 [Example 34]
12,100 to 1000 nM,C[C@]1(C(=O)O)CCCN(c2c3c(nc4cc([C@H]5CC[C@H](C(F)(F)F)CC5)nn24)CCOC3)C1 [Example 36]
